In ChEMBL document CHEMBL4257222, “Use of small molecule inhibitors targeting eya tyrosine phosphatase” (2016):
One block for each compound: values may come before it. Active and inactive are the calls of the source. No cut-off for these calls is given here.

Assays:
Aorta [1] = assay: Inhibition of branching in mouse aorta cultured in collagen gels assessed as reduction in number of branch-points at 7.5 uM by aortic ring sprouting assay; format: functional, tissue-based
Aorta [2] = assay: Inhibition of sprouting in mouse aorta cultured in collagen gels at 7.5 uM by aortic ring sprouting assay; format: functional, tissue-based
HUVEC [3] = assay: Inhibition of tubulogenesis of HUVEC grown on growth factor-reduced matrigel by inverted microscopy; format: functional, cell-based; details: Homo sapiens
Mus musculus [4] = species: Mus musculus; assay: Inhibition of proliferative retinopathy in mouse model of oxygen-induced retinopathy assessed as reduction in revascularization into the vaso-obliterated area at 50 to 100 pmole injected at P12 and measured at P16; format: functional, organism-based
Danio rerio [5] = species: Danio rerio; assay: Inhibition of angiogenesis in FLK1-GFP trangenic zebrafish model of angiogenesis assessed as induction of defects in developing vasculature measured after 24 hpf stage by fluorescence microscopy; format: functional, organism-based
Aorta [6] = assay: Inhibition of endothelial cell migration in VEGF165-stimulated […] mouse aortic rings incubated in collagen matrix assessed as induction of shorter sprouts incubated for 10 days by aortic ring assay; format: functional, tissue-based
[7] = target: T1, Protein phosphatase EYA2 (Homo sapiens) (UniProt O00167); assay: Inhibition of Eya2 (unknown origin) expressed in human MCF10A cells assessed as reduction in cell migration; format: cell-based
T1 sequence (whole entry): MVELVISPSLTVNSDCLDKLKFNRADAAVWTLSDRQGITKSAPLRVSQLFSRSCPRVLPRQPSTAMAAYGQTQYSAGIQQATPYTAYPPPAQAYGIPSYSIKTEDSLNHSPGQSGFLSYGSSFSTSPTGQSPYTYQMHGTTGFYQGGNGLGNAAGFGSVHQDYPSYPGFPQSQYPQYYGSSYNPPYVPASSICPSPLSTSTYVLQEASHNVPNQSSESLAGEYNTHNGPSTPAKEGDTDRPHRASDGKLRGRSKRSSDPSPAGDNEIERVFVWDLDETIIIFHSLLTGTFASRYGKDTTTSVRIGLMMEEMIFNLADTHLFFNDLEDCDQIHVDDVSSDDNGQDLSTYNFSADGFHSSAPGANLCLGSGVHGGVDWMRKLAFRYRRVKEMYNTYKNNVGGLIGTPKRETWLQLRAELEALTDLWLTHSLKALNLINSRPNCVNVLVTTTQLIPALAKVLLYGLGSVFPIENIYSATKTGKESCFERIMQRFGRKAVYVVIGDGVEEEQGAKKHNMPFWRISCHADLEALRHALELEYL

HUVEC [8] = assay: Inhibition of cell motility of HUVEC; format: functional, cell-based; details: Homo sapiens
Aorta [9] = assay: Inhibition of endothelial cell migration in VEGF165-stimulated […] mouse aortic rings incubated in collagen matrix assessed as reduction in microvascular density incubated for 10 days by aortic ring assay; format: functional, tissue-based
HUVEC [10] = assay: Toxicity in HUVEC assessed as reduction in cell proliferation incubated for 3 days by WST8 assay; format: cell-based; parameters: scale not given: the % may be the effect or the level left; details: human, 72 h
Mus musculus [11] = species: Mus musculus; assay: Inhibition of proliferative retinopathy in mouse model of oxygen-induced retinopathy assessed as reduction in formation of neovascular tufts at 50 to 100 pmole injected at P12 and measured at P16; format: functional, organism-based
HUVEC [12] = assay: Toxicity in HUVEC assessed as effect on cell proliferation by MTT assay; format: cell-based; details: human
HUVEC [13] = assay: Inhibition of tube formation of HUVEC by matrigel tube-formation assay; format: functional, cell-based; details: Homo sapiens
MCF-10A = assay: Toxicity in human MCF10A cells expressing Eya2 (unknown origin) assessed as effect on cell proliferation of; format: cell-based
Danio rerio [14] = species: Danio rerio; assay: Inhibition of angiogenesis in FLK1-GFP trangenic zebrafish model of angiogenesis assessed as effect on vasculature exposed to compound starting at later stage (20 hpf) by fluorescence microscopy; format: functional, organism-based
[15] = target: T1, Protein phosphatase EYA2 (Homo sapiens); assay: Inhibition of Eya2 (unknown origin) expressed in human MCF10A cells assessed as reduction in cell migration at 1 uM; format: cell-based
[16] = tested on: T2, Protein phosphatase EYA2 (Homo sapiens), O00167 [D250N]; assay: Inhibition of Eya2 D250N mutant (unknown origin) expressed in human MCF10A cells assessed as reduction in cell migration; format: cell-based; details: concentration not given here
T2 sequence (whole entry): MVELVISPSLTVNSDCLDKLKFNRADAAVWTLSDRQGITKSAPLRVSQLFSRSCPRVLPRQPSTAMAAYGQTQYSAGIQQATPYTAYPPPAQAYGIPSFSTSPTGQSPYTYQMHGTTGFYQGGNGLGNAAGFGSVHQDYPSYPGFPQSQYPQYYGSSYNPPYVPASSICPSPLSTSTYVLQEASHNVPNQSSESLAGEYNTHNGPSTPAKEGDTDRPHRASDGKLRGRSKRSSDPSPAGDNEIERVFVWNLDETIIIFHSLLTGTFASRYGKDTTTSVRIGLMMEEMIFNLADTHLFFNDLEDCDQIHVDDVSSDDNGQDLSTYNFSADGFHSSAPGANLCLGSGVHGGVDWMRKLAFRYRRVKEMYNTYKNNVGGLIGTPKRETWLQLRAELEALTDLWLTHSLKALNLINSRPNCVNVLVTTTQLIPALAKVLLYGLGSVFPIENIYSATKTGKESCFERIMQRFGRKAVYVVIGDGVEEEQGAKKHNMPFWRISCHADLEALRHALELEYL

Mus musculus [17] = species: Mus musculus; assay: Inhibition of post-natal retinal angiogenesis in postnatal mouse assessed as reduction in branch points at 100 uM injected into eyes at P0.5, P3 and P5; format: functional, organism-based
[18] = Selectivity index, ratio of IC50 for inhibition of PTP1B (unknown origin) by p-nitrophenylphosphate assay to IC50 for inhibition of mouse Eya3 catalytic domain (223 to 510 residues) by p-nitrophenylphosphate assay
HUVEC [19] = assay: Inhibition of tubulogenesis of HUVEC grown on growth factor-reduced matrigel at 2.5 uM by inverted microscopy; format: functional; details: Homo sapiens
Danio rerio [20] = species: Danio rerio; assay: Inhibition of angiogenesis in FLK1-GFP trangenic zebrafish model of angiogenesis assessed as reduction in intersegmental vessel number and extension measured after 24 hpf stage by fluorescence microscopy; format: functional, organism-based
HUVEC [21] = assay: Inhibition of tubulogenesis of HUVEC grown on growth factor-reduced matrigel at 7.5 uM by inverted microscopy; format: functional, cell-based; details: Homo sapiens
[22] = target: T3, Protein phosphatase EYA3 (Homo sapiens) (UniProt Q99504); details: 50 uM
T3 sequence (whole entry): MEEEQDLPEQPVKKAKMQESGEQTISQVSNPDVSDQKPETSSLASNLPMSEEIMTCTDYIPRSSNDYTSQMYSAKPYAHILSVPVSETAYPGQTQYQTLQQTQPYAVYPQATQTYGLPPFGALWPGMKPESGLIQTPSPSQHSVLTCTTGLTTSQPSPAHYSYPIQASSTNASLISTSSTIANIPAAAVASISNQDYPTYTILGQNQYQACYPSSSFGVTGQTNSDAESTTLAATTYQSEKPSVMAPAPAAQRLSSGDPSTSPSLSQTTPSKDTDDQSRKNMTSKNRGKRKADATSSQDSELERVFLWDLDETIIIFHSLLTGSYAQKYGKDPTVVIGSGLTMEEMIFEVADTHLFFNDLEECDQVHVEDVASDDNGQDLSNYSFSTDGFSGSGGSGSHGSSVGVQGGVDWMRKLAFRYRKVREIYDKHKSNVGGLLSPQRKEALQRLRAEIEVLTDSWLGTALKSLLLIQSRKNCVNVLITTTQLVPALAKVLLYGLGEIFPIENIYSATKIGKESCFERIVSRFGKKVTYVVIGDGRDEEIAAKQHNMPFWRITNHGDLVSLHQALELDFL
Description: Inhibition of human Eya3 isoform 2 (127 to 573 residues) interaction with His-tagged SIX2 at 50 uM by Ni-NTA agarose gel based pull down assay

A673 = assay: Antitumor activity against human A673 cells xenografted in nude mouse assessed as inhibition tumor growth at 25 mg/kg/day, ip and measured every other day for 2 weeks; format: functional, organism-based
HUVEC [23] = assay: Inhibition of tube formation of HUVEC assessed as reduction of interconnecting cellular aggregates of endothelial cells after 20 hrs by matrigel tube-formation assay; format: functional, cell-based; details: Homo sapiens
HUVEC [24] = assay: Inhibition of tube formation of HUVEC assessed as induction of reduction in endothelial cells organization after 6 hrs by matrigel tube-formation assay; format: functional, cell-based; details: Homo sapiens
HUVEC [25] = assay: Inhibition of tube formation of HUVEC assessed as induction of reduction in endothelial cells organization after 2 hrs by matrigel tube-formation assay; format: functional, cell-based; details: Homo sapiens
HUVEC [26] = assay: Inhibition of tube formation of HUVEC in presence of hight level of fetal bovine serum by matrigel tube-formation assay; format: functional, cell-based; details: Homo sapiens
HUVEC [27] = assay: Inhibition of tube formation of HUVEC assessed as induction of endothelial cells aggregation by matrigel tube-formation assay; format: functional, cell-based; details: Homo sapiens

SMILES: CC(O)c1oc2ccccc2c1C(=O)c1cc(Br)c(O)c(Br)c1 (stereo not given)
- inhibition (Aorta [1]): Active
- inhibition (Aorta [2]): Active

- inhibition [7]: Dose-dependent effect
- inhibition [15]: > 50%
- inhibition [16]: < 10%
- Ratio IC50 [18]: > 100
SMILES: CCc1oc2ccccc2c1C(=O)c1ccc(O)cc1 [BENZARONE]
- inhibition (HUVEC [3]): Dose-dependent effect
- inhibition (Mus musculus [4]): Active
- inhibition (Danio rerio [5]): Dose-dependent effect
- inhibition (Aorta [6]): Dose-dependent effect
- inhibition (HUVEC [8]): Active
- inhibition (Aorta [9]): Dose-dependent effect
- Activity (HUVEC [10]): Toxic
- inhibition (Mus musculus [11]): Active
- Activity (HUVEC [12]): Non-Toxic
- inhibition (HUVEC [13]): Active
- Activity (MCF-10A): Non-Toxic
- inhibition (Danio rerio [14]): inactive
- inhibition (Mus musculus [17]): Active
- inhibition at 2.5 µM (HUVEC [19]): 50%
- inhibition (Danio rerio [20]): Dose-dependent effect

SMILES: Cc1oc2ccccc2c1C(=O)c1cc(I)c(O)c(I)c1
- inhibition (Aorta [1]): Active
- inhibition (Aorta [2]): Active
- inhibition (HUVEC [13]): inactive

SMILES: CCCCc1oc2ccccc2c1C(=O)c1cc(I)c(O)c(I)c1
- inhibition (Aorta [1]): Active
- inhibition (Aorta [2]): Active
- inhibition (HUVEC [13]): inactive

- inhibition [7]: Dose-dependent effect
- inhibition [16]: < 10%
SMILES: CCCCc1oc2ccccc2c1C(=O)c1ccc(O)cc1
- inhibition (Mus musculus [4]): Active
- inhibition (Danio rerio [5]): Dose-dependent effect
- inhibition (Aorta [6]): Dose-dependent effect
- inhibition (HUVEC [8]): Active
- inhibition (Aorta [9]): Dose-dependent effect
- inhibition (Mus musculus [11]): Active
- Activity (HUVEC [12]): Non-Toxic
- Activity (MCF-10A): Non-Toxic
- inhibition (HUVEC [21]): Active
- inhibition (Danio rerio [14]): inactive
- inhibition (Danio rerio [20]): Dose-dependent effect

- inhibition [22]: inactive
- inhibition [7]: Dose-dependent effect
- inhibition [16]: < 10%
SMILES: CCc1oc2ccccc2c1C(=O)c1cc(Br)c(O)c(Br)c1 [BENZBROMARONE]
- inhibition (Mus musculus [4]): Active
- inhibition (Danio rerio [5]): Dose-dependent effect
- inhibition (Aorta [6]): Dose-dependent effect
- TGI (A673): Active
- inhibition (HUVEC [8]): Active
- inhibition (Aorta [9]): Dose-dependent effect
- Activity (HUVEC [10]): Toxic
- inhibition (Mus musculus [11]): Active
- Activity (HUVEC [12]): Non-Toxic
- inhibition (HUVEC [13]): Active
- Activity (MCF-10A): Non-Toxic
- inhibition (HUVEC [21]): Active
- inhibition (Danio rerio [14]): inactive
- inhibition (Danio rerio [20]): Dose-dependent effect

SMILES: CC(O)CCc1oc2ccccc2c1C(=O)c1cc(I)c(O)c(I)c1 (stereo not given)
- inhibition (Aorta [1]): Active
- inhibition (Aorta [2]): Active
- inhibition (HUVEC [13]): inactive

SMILES: Cc1oc2ccccc2c1C(=O)c1ccc(O)c(I)c1
- inhibition (Aorta [1]): Active
- inhibition (Aorta [2]): Active
- inhibition (HUVEC [13]): inactive

SMILES: CCc1oc2ccc(O)cc2c1C(=O)c1cc(Br)c(O)c(Br)c1
- inhibition (Aorta [1]): Active
- inhibition (Aorta [2]): Active
- inhibition (HUVEC [13]): inactive

SMILES: CCc1oc2cc(O)ccc2c1C(=O)c1cc(Br)c(O)c(Br)c1
- inhibition (Aorta [1]): Active
- inhibition (HUVEC [23]): Active
- inhibition (HUVEC [24]): Active
- inhibition (Aorta [2]): Active
- Activity (HUVEC [10]): > 50%
- inhibition (HUVEC [13]): Active
- inhibition (HUVEC [25]): Active
- inhibition (HUVEC [26]): inactive
- inhibition (HUVEC [27]): Active
